From patent US20230132823A1, “BI-FUNCTIONAL COMPOUNDS AND METHODS FOR TARGETED UBIQUITINATION OF ANDROGEN RECEPTOR” (MONTELINO THERAPEUTICS, INC., priority 2020, published 2023)

tested on: 22Rv1; assay: 22Rv1 cell proliferation assay (Experimental Example 1, cell count); format: cell-based; details: Homo sapiens, 22Rv1, read-out: 22Rv1 cell count decrease at 10 μM for 48 hours; 10 μM (method: four days); read-out: 22Rv1 cell count decrease at 10 μM
Description: The human prostate cancer cell line, 22Rv1 has been reported to express a high level of AR-V7. […] Standard culture media was RPMI-1640 supplemented with 10% fetal bovine serum. The test compound initially was dissolved in DMSO at 50 mM. This stock solution was then diluted as needed for the indicated concentrations. […]
In the Table: (+)—the cell count decreased between 0 and 20%; (++)—the cell count decreased […]; (+++)—the cell count decreased by more than 50%.

SMILES | inhibition at 10 µM
O=C(COc1c(-c2csc(N3CCOCC3)n2)ccc(F)c1F)NCCCCCCCCNc1cccc2c1C(=O)N(C1CCC(=O)NC1=O)C2=O (centres unmarked) [Example 2, 2-(2,3-difluoro-6-(2-morpholinothiazol-4-yl)phenoxy)-N-(8-((2-(2,6-dioxopiperidin-3-yl)-1,3-dioxoisoindolin-4-yl)amino)octyl)acetamide] | 0 to 20%
O=C(COc1c(-c2csc(N3CCOCC3)n2)ccc(F)c1F)NCCOCCOCCNc1cccc2c1C(=O)N(C1CCC(=O)NC1=O)C2=O (centres unmarked) [Example 4, 2-(2,3-difluoro-6-(2-morpholinothiazol-4-yl)phenoxy)-N-(2-(2-(2-((2-(2,6-dioxopiperidin-3-yl)-1,3-dioxoisoindolin-4-yl)amino)ethoxy)ethoxy)ethyl)acetamide] | 0 to 20%
O=C(COc1c(-c2csc(N3CCOCC3)n2)ccc(F)c1F)NCCOCCOCCOCCNc1cccc2c1C(=O)N(C1CCC(=O)NC1=O)C2=O (centres unmarked) [Example 5, 2-(2,3-difluoro-6-(2-morpholinothiazol-4-yl)phenoxy)-N-(2-(2-(2-(2-((2-(2,6-dioxopiperidin-3-yl)-1,3-dioxoisoindolin-4-yl)amino)ethoxy)ethoxy)ethoxy)ethyl)acetamide] | 0 to 20%
O=C(COc1c(-c2csc(N3CCOCC3)n2)ccc(F)c1F)NCCOCCOCCOCCOCCNc1cccc2c1C(=O)N(C1CCC(=O)NC1=O)C2=O (centres unmarked) [Example 6, 2-(2,3-difluoro-6-(2-morpholinothiazol-4-yl)phenoxy)-N-(14-((2-(2,6-dioxopiperidin-3-yl)-1,3-dioxoisoindolin-4-yl)amino)-3,6,9,12-tetraoxatetradecyl)acetamide] | 0 to 20%
O=C(COc1cccc2c1C(=O)N(C1CCC(=O)NC1=O)C2=O)NCCCCCCNC(=O)COc1c(-c2csc(N3CCOCC3)n2)ccc(F)c1F (centres unmarked) [Example 7, 2-(2,3-difluoro-6-(2-morpholinothiazol-4-yl)phenoxy)-N-(6-(2-((2-(2,6-dioxopiperidin-3-yl)-1,3-dioxoisoindolin-4-yl)oxy)acetamido)hexyl)acetamide] | 0 to 20%
O=C(COc1cccc2c1C(=O)N(C1CCC(=O)NC1=O)C2=O)NCCCCCCCCNC(=O)COc1c(-c2csc(N3CCOCC3)n2)ccc(F)c1F (centres unmarked) [Example 8, 2-(2,3-difluoro-6-(2-morpholinothiazol-4-yl)phenoxy)-N-(8-(2-((2-(2,6-dioxopiperidin-3-yl)-1,3-dioxoisoindolin-4-yl)oxy)acetamido)octyl)acetamide] | 0 to 20%
O=C(COc1cccc2c1C(=O)N(C1CCC(=O)NC1=O)C2=O)NCCCCCCCCCCNC(=O)COc1c(-c2csc(N3CCOCC3)n2)ccc(F)c1F (centres unmarked) [Example 9, 2-(2,3-difluoro-6-(2-morpholinothiazol-4-yl)phenoxy)-N-(10-(2-((2-(2,6-dioxopiperidin-3-yl)-1,3-dioxoisoindolin-4-yl)oxy)acetamido)decyl)acetamide] | 0 to 20%
O=C(COc1cccc2c1C(=O)N(C1CCC(=O)NC1=O)C2=O)NCCOCCOCCNC(=O)COc1c(-c2csc(N3CCOCC3)n2)ccc(F)c1F (centres unmarked) [Example 10, 2-(2,3-difluoro-6-(2-morpholinothiazol-4-yl)phenoxy)-N-(2-(2-(2-(2-((2-(2,6-dioxopiperidin-3-yl)-1,3-dioxoisoindolin-4-yl)oxy)acetamido)ethoxy)ethoxy)ethyl)acetamide] | 0 to 20%
O=C(COc1cccc2c1C(=O)N(C1CCC(=O)NC1=O)C2=O)NCCOCCOCCOCCNC(=O)COc1c(-c2csc(N3CCOCC3)n2)ccc(F)c1F (centres unmarked) [Example 11, 2-(2,3-difluoro-6-(2-morpholinothiazol-4-yl)phenoxy)-N-(1-((2-(2,6-dioxopiperidin-3-yl)-1,3-dioxoisoindolin-4-yl)oxy)-2-oxo-6,9,12-trioxa-3-azatetradecan-14-yl)acetamide] | 0 to 20%
O=C1CCC(N2C(=O)c3cccc(NCCOCCOCCOc4c(-c5csc(N6CCOCC6)n5)ccc(F)c4F)c3C2=O)C(=O)N1 (centres unmarked) [Example 12, 4-((2-(2-(2-(2,3-difluoro-6-(2-morpholinothiazol-4-yl)phenoxy)ethoxy)ethoxy)ethyl)amino)-2-(2,6-dioxopiperidin-3-yl)isoindoline-1,3-dione] | 0 to 20%
O=C1CCC(N2C(=O)c3cccc(NCCOCCOCCOCCOc4c(-c5csc(N6CCOCC6)n5)ccc(F)c4F)c3C2=O)C(=O)N1 (centres unmarked) [Example 13, 4-((2-(2-(2-(2-(2,3-difluoro-6-(2-morpholinothiazol-4-yl)phenoxy)ethoxy)ethoxy)ethoxy)ethyl)amino)-2-(2,6-dioxopiperidin-3-yl)isoindoline-1,3-dione] | 0 to 20%
O=C(COc1cccc2c1C(=O)N(C1CCC(=O)NC1=O)C2=O)NCCOCCOCCOCCOCCOc1c(-c2csc(N3CCOCC3)n2)ccc(F)c1F (centres unmarked) [Example 14, N-(14-(2,3-difluoro-6-(2-morpholinothiazol-4-yl)phenoxy)-3,6,9,12-tetraoxatetradecyl)-2-((2-(2,6-dioxopiperidin-3-yl)-1,3-dioxoisoindolin-4-yl)oxy)acetamide] | 0 to 20%
Cc1ncsc1-c1ccc([C@H](C)NC(=O)[C@@H]2C[C@@H](O)CN2C(=O)[C@@H](NC(=O)CCCNC(=O)COc2c(-c3csc(N4CCOCC4)n3)ccc(F)c2F)C(C)(C)C)cc1 [Example 15, (2S,4R)-1-((S)-2-(4-(2-(2,3-difluoro-6-(2-morpholinothiazol-4-yl)phenoxy)acetamido)butanamido)-3,3-dimethylbutanoyl)-4-hydroxy-N-((S)-1-(4-(4-methylthiazol-5-yl)phenyl)ethyl)pyrrolidine-2-carboxamide] | < 50%
Cc1ncsc1-c1ccc([C@H](C)NC(=O)[C@@H]2C[C@@H](O)CN2C(=O)[C@@H](NC(=O)CCCCCNC(=O)COc2c(-c3csc(N4CCOCC4)n3)ccc(F)c2F)C(C)(C)C)cc1 [Example 17, (2S,4R)-1-((S)-2-(6-(2-(2,3-difluoro-6-(2-morpholinothiazol-4-yl)phenoxy)acetamido)hexanamido)-3,3-dimethylbutanoyl)-4-hydroxy-N-((S)-1-(4-(4-methylthiazol-5-yl)phenyl)ethyl)pyrrolidine-2-carboxamide] | < 50%
Cc1ncsc1-c1ccc([C@H](C)NC(=O)[C@@H]2C[C@@H](O)CN2C(=O)[C@@H](NC(=O)CCCCCCNC(=O)COc2c(-c3csc(N4CCOCC4)n3)ccc(F)c2F)C(C)(C)C)cc1 [Example 18, (2S,4R)-1-((S)-2-(7-(2-(2,3-difluoro-6-(2-morpholinothiazol-4-yl)phenoxy)acetamido)heptanamido)-3,3-dimethylbutanoyl)-4-hydroxy-N-((S)-1-(4-(4-methylthiazol-5-yl)phenyl)ethyl)pyrrolidine-2-carboxamide] | < 50%
Cc1ncsc1-c1ccc([C@H](C)NC(=O)[C@@H]2C[C@@H](O)CN2C(=O)[C@@H](NC(=O)COCCCNC(=O)COc2c(-c3csc(N4CCOCC4)n3)ccc(F)c2F)C(C)(C)C)cc1 [Example 19, (2S,4R)-1-((S)-2-(2-(3-(2-(2,3-difluoro-6-(2-morpholinothiazol-4-yl)phenoxy)acetamido)propoxy)acetamido)-3,3-dimethylbutanoyl)-4-hydroxy-N-((S)-1-(4-(4-methylthiazol-5-yl)phenyl)ethyl)pyrrolidine-2-carboxamide] | < 50%
Cc1ncsc1-c1ccc([C@H](C)NC(=O)[C@@H]2C[C@@H](O)CN2C(=O)[C@@H](NC(=O)COCCOCCNC(=O)COc2c(-c3csc(N4CCOCC4)n3)ccc(F)c2F)C(C)(C)C)cc1 [Example 20, (2S,4R)-1-((S)-2-(tert-butyl)-14-(2,3-difluoro-6-(2-morpholinothiazol-4-yl)phenoxy)-4,13-dioxo-6,9-dioxa-3,12-diazatetradecanoyl)-4-hydroxy-N-((S)-1-(4-(4-methylthiazol-5-yl)phenyl)ethyl)pyrrolidine-2-carboxamide] | < 50%
Cc1ncsc1-c1ccc([C@H](C)NC(=O)[C@@H]2C[C@@H](O)CN2C(=O)[C@@H](NC(=O)CCCCCCCOc2c(-c3csc(N4CCOCC4)n3)ccc(F)c2F)C(C)(C)C)cc1 [Example 21, (2S,4R)-1-((S)-2-(8-(2,3-difluoro-6-(2-morpholinothiazol-4-yl)phenoxy)octanamido)-3,3-dimethylbutanoyl)-4-hydroxy-N-((S)-1-(4-(4-methylthiazol-5-yl)phenyl)ethyl)pyrrolidine-2-carboxamide] | < 50%
Cc1ncsc1-c1ccc([C@H](CC(=O)NCCCCNC(=O)COc2c(-c3csc(N4CCOCC4)n3)ccc(F)c2F)NC(=O)[C@@H]2C[C@@H](O)CN2C(=O)[C@@H](NC(=O)C2(F)CC2)C(C)(C)C)cc1 [Example 22, (2S,4R)-N-((S)-3-((4-(2-(2,3-difluoro-6-(2-morpholinothiazol-4-yl)phenoxy)acetamido)butyl)amino)-1-(4-(4-methylthiazol-5-yl)phenyl)-3-oxopropyl)-1-((S)-2-(1-fluorocyclopropane-1-carboxamido)-3,3-dimethylbutanoyl)-4-hydroxypyrrolidine-2-carboxamide] | 0 to 20%
Cc1ncsc1-c1ccc([C@H](CC(=O)NCCCCCCNC(=O)COc2c(-c3csc(N4CCOCC4)n3)ccc(F)c2F)NC(=O)[C@@H]2C[C@@H](O)CN2C(=O)[C@@H](NC(=O)C2(F)CC2)C(C)(C)C)cc1 [Example 23, (2S,4R)-N-((S)-3-((6-(2-(2,3-difluoro-6-(2-morpholinothiazol-4-yl)phenoxy)acetamido)hexyl)amino)-1-(4-(4-methylthiazol-5-yl)phenyl)-3-oxopropyl)-1-((S)-2-(1-fluorocyclopropane-1-carboxamido)-3,3-dimethylbutanoyl)-4-hydroxypyrrolidine-2-carboxamide] | 0 to 20%
